We go through 30 compounds from patent US11279691B2, “Substituted pyridine and pyrazine compounds as PDE4 inhibitors” (Dart Neuroscience LLC, priority 2013, dated 2022).

A value given as a limit tells only on which side of the number the result lay.

The target of this experiment is T1, PDE4D3 (Homo sapiens, UniProt Q08499).
T1 construct: GST
T1 sequence (Q08499 1-673 isoform Q08499-2): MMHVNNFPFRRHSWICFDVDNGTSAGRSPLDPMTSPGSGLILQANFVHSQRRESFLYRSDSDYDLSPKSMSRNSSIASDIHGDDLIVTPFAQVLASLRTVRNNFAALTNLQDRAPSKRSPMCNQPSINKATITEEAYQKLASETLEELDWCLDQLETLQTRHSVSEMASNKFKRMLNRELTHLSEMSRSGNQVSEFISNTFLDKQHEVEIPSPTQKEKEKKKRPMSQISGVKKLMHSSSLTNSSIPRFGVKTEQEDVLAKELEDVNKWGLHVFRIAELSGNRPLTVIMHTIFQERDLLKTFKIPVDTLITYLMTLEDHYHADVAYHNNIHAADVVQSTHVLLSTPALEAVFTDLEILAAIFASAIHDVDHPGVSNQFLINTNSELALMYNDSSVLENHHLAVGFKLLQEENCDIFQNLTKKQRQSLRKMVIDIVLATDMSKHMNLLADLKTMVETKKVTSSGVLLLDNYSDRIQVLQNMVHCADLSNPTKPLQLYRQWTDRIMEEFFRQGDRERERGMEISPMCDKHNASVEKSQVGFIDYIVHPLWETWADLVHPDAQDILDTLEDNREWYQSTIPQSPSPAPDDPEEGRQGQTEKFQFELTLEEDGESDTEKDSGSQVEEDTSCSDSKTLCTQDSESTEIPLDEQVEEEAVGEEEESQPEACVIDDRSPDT
The class given is biochemical. The settings on record: GST-tagged PDE4D3, 200 nM FAM-cAMP, 11-point dose-response; read-out: PD4d3 pEC50 (converted).
For `CCOc1cc(-c2cc(Cc3cnc(N)nc3)cnc2OC)ccc1F` [Example 355, 5-{[5-(3-Ethoxy-4-fluorophenyl)-6-methoxypyridin-3-yl]methyl}pyrimidin-2-amine], the EC50 was 100 to 1000 nM.

With `COc1ncc(Cc2cnc(N)nc2)cc1-c1cccc(C#N)c1` [Example 356, 3-{5-[(2-Aminopyrimidin-5-yl)methyl]-2-methoxypyridin-3-yl}benzonitrile], the EC50 is 100 to 1000 nM.

For the compound `COc1ncc(Cc2cnc(N)nc2)cc1-c1ccc(F)c(C)c1` [Example 357, 5-{[5-(4-Fluoro-3-methylphenyl)-6-methoxypyridin-3-yl]methyl}pyrimidin-2-amine], the EC50 was 100 to 1000 nM.

For `COc1ncc(Cc2cnc(CC#N)nc2)cc1-c1ccc(F)c(F)c1` [Example 358, 2-(5-{[5-(3,4-Difluorophenyl)-6-methoxypyridin-3-yl]methyl}pyrimidin-2-yl)acetonitrile], the EC50 is below 100 nM.

Regarding `COc1ncc(Cc2cnc(N)nc2)cc1-c1ccc(F)c(Cl)c1` [Example 359, 5-{[5-(3-Chloro-4-fluorophenyl)-6-methoxypyridin-3-yl]methyl}pyrimidin-2-amine], the EC50 is below 100 nM.

For `COc1ncc(Cc2cnc(N)nc2)cc1-c1ccc(F)cc1` [Example 360, 5-{[5-(4-Fluorophenyl)-6-methoxypyridin-3-yl]methyl}pyrimidin-2-amine], the EC50 was below 100 nM.

For the compound `COc1ncc(Cc2cnc(N)nc2)cc1-c1ccc(Cl)c(F)c1` [Example 361, 5-{[5-(4-Chloro-3-fluorophenyl)-6-methoxypyridin-3-yl]methyl}pyrimidin-2-amine], the EC50 is 100 to 1000 nM.

On to `COc1ncc(Cc2cnc(N)nc2)cc1-c1ccc(F)c(F)c1` [Example 362, 5-{[5-(3,4-Difluorophenyl)-6-methoxypyridin-3-yl]methyl}pyrimidin-2-amine], for which the EC50 is below 100 nM.

With `COc1ncc(Cc2ccc(CC(N)=O)cc2)cc1-c1ccc(F)c(F)c1` [Example 363, 2-(4-{[5-(3,4-Difluorophenyl)-6-methoxypyridin-3-yl]methyl}phenyl)acetamide], the EC50 was below 100 nM.

`COc1ncc(Cc2ccc(CC(N)=O)cc2)cc1-c1ccc(F)cc1` [Example 364, 2-(4-{[5-(4-Fluorophenyl)-6-methoxypyridin-3-yl]methyl}phenyl)acetamide]: the EC50 was below 100 nM.

In the case of `COc1ncc(Cc2ccc(CC(N)=O)cc2)cc1-c1ccc(Cl)c(F)c1` [Example 365, 2-(4-{[5-(4-Chloro-3-fluorophenyl)-6-methoxypyridin-3-yl]methyl}phenyl)acetamide], the EC50 was below 100 nM.

As for `COc1ncc(Cc2cnc(CC(N)=O)nc2)cc1-c1ccc(Cl)c(F)c1` [Example 366, 2-(5-{[5-(4-Chloro-3-fluorophenyl)-6-methoxypyridin-3-yl]methyl}pyrimidin-2-yl)acetamide], the EC50 was 100 to 1000 nM.

As for `COc1ncc(Cc2cnc(C(C)(C)C(N)=O)nc2)cc1-c1cccc(Cl)c1` [Example 367, 2-(5-{[5-(3-Chlorophenyl)-6-methoxypyridin-3-yl]methyl}pyrimidin-2-yl)-2-methylpropanamide], the EC50 is 100 to 1000 nM.

For `COc1ncc(Cc2cnc(CC(N)=O)nc2)cc1-c1ccc(F)c(F)c1` [Example 368, 2-(5-{[5-(3,4-Difluorophenyl)-6-methoxypyridin-3-yl]methyl}pyrimidin-2-yl)acetamide], the EC50 is below 100 nM.

With `COc1ncc(Cc2cnc(CC(N)=O)nc2)cc1-c1cccc(Cl)c1` [Example 369, 2-(5-{[5-(3-Chlorophenyl)-6-methoxypyridin-3-yl]methyl}pyrimidin-2-yl)acetamide], the EC50 is below 100 nM.

Consider `NC(=O)Cc1ncc(Cc2cnc(OCC(F)(F)F)c(-c3cccc(Cl)c3)c2)cn1` [Example 370, 2-(5-{[5-(3-Chlorophenyl)-6-(2,2,2-trifluoroethoxy)pyridin-3-yl]methyl}pyrimidin-2-yl)acetamide], for which the EC50 is 100 to 1000 nM.

`NC(=O)Cc1ncc(Cc2cnc(OCC(F)F)c(-c3cccc(Cl)c3)c2)cn1` [Example 371, 2-(5-{[5-(3-Chlorophenyl)-6-(2,2-difluoroethoxy)pyridin-3-yl]methyl}pyrimidin-2-yl)acetamide]: the EC50 is below 100 nM.

Consider `NC(=O)Cc1ncn(Cc2cnc(OC(F)F)c(-c3cccc(Cl)c3)c2)n1` [Example 372, 2-(1-{[5-(3-Chlorophenyl)-6-(difluoromethoxy)pyridin-3-yl]methyl}-1H-1,2,4-triazol-3-yl)acetamide], for which the EC50 is below 100 nM.

As to `COc1ncc(Cc2cnc(C(N)=O)nc2)cc1-c1ccc(F)c(F)c1` [Example 373, 5-{[5-(3,4-Difluorophenyl)-6-methoxypyridin-3-yl]methyl}pyrimidine-2-carboxamide], the EC50 was 100 to 1000 nM.

Regarding `COc1ncc(Cc2cnc(C(N)=O)nc2)cc1-c1ccc(F)cc1` [Example 374, 5-{[5-(4-Fluorophenyl)-6-methoxypyridin-3-yl]methyl}pyrimidine-2-carboxamide], the EC50 was 100 to 1000 nM.

Regarding `COc1ncc(Cc2cnc(NCCO)nc2)cc1-c1ccc(F)c(F)c1` [Example 375, 2-[(5-{[5-(3,4-Difluorophenyl)-6-methoxypyridin-3-yl]methyl}pyrimidin-2-yl)amino]ethan-1-ol], the EC50 is below 100 nM.

Regarding `COc1ncc(Cc2cnc(CO)cn2)cc1-c1cccc(Cl)c1` [Example 376, (5-{[5-(3-Chlorophenyl)-6-methoxypyridin-3-yl]methyl}pyrazin-2-yl)methanol], the EC50 was below 100 nM.

For `COc1ncc(Cc2cnc(C)cn2)cc1-c1cccc(Cl)c1` [Example 377, 2-{[5-(3-Chlorophenyl)-6-methoxypyridin-3-yl]methyl}-5-methylpyrazine], the EC50 was below 100 nM.

Consider `COc1ncc(Cc2ccc(C#N)cn2)cc1-c1cccc(Cl)c1` [Example 378, 6-{[5-(3-Chlorophenyl)-6-methoxypyridin-3-yl]methyl}pyridine-3-carbonitrile], for which the EC50 is 100 to 1000 nM.

For `COc1ncc(Cc2cnc(N)cn2)cc1-c1ccc(Cl)c(F)c1` [Example 379, 5-{[5-(4-Chloro-3-fluorophenyl)-6-methoxypyridin-3-yl]methyl}pyrazin-2-amine], the EC50 is 100 to 1000 nM.

Take `COc1ncc(Cn2nnnc2C)cc1-c1cccc(Cl)c1` [Example 380, 3-(3-Chlorophenyl)-2-methoxy-5-[(5-methyl-1H-1,2,3,4-tetrazol-1-yl)methyl]pyridine]: the EC50 is below 100 nM.

On to `COc1ncc(Cn2nnc(CO)n2)cc1-c1ccc(F)cc1` [Example 381, (2-{[5-(4-Fluorophenyl)-6-methoxypyridin-3-yl]methyl}-2H-1,2,3,4-tetrazol-5-yl)methanol], for which the EC50 was 100 to 1000 nM.

Take `COc1ncc(Cn2nnnc2CO)cc1-c1ccc(F)cc1` [Example 382, (1-{[5-(4-Fluorophenyl)-6-methoxypyridin-3-yl]methyl}-1H-1,2,3,4-tetrazol-5-yl)methanol]: the EC50 is 1000 to 10000 nM.

As to `COc1ncc(Cn2nnc(CO)n2)cc1-c1ccc(F)c(F)c1` [Example 383, (2-{[5-(3,4-Difluorophenyl)-6-methoxypyridin-3-yl]methyl}-2H-1,2,3,4-tetrazol-5-yl)methanol], the EC50 is 100 to 1000 nM.

With `COc1ncc(Cn2nnnc2CO)cc1-c1ccc(F)c(F)c1` [Example 384, (1-{[5-(3,4-Difluorophenyl)-6-methoxypyridin-3-yl]methyl}-1H-1,2,3,4-tetrazol-5-yl)methanol], the EC50 is 1000 to 10000 nM.
